The text below walks through data of patent publication US20130158070A1, “CONJUGATES OF POLYUNSATURATED FATTY ACIDS AND AMINE-CONTAINING COMPOUNDS AND USES THEREOF” (priority 2010, published 2013).

Data set [1] has as its system collagen induced arthritis. Briefly: Collagen induced arthritis (CIA), arthritis score, paw thickness, body weight. It counts as in vivo, DBA/1J mice. How it is done:
In a different study, 34 male 8-10 weeks old DBA/1J mice were used. Animals were fed ad libitum a commercial rodent diet (Teklad Certified Global 18% Protein Diet cat #: 106S8216). Animals had free access to acidified drinking water (pH between 2.5 and 3.0) obtained from the municipality supply.
The effect of MWL-002 (conjugate of DHA and taurine) was tested and compared to that of Ibuprofen. Cremophore EL was used as a vehicle.
On day 0, each mouse was anesthetized by inhalation of 3% isofluorane and injected intradermally at the base of the tail with 0.1 ml of emulsion containing 100 μg collagen, using a 1-ml glass syringe with a 26-guade needle. Booster injection was performed at day 15 to the same injection site.
The tested materials were administered 3 times a week, via IP for a total of 12 administrations starting on day 1.
Observations for clinical score were performed twice weekly until study termination.
The severity of arthritis was scored based on the level of inflammation in each of the four paws and recorded as one of five grades according to the following:
Hind paw thickness (edema) was measured by digital caliper once a week until Day 14 and thereafter twice weekly and prior to study termination. Two cross sectional areas were marked, one on the paw and the other at the ankle (tarsal joint). Two measurements were made on each section, perpendicular to each other. The results obtained were calculated as the average areas of both hind limbs per animal.
Body weight was measured prior to dosing, during the study twice a week and prior to study termination.

A short description of data set [2]: Pharmacokinetic profile after oral administration in rats. In kind it is in vivo, Sprague-Dawley male rats. The method, then:
Evaluation of the pharmacokinetic profile of MWL001 after oral administration in rats was performed.
Sprague-Dawley male rats weighing 300-325 g were used to evaluate the oral absorption of MWL001 and its blood levels. They were deprived of food overnight and given free access to water. A dose of 10 mg/kg MWL-001 (3.3 mg/rat) was dispersed in 2.5 mL DDW and delivered to the rats by oral gavage. Blood samples (300 μl) from the rats' tails were collected in heparin containing tubes at 0, 0.5, 1, 1.5, 2, 3, 4, 6, 8, 12 and 24 h. The samples were immediately centrifuged at 10,000 rpm for 5 min, after which 150 μl of plasma samples were transferred to new tubes and stored at −80° C. until analyzed by LCMS/MS.
The assay was based on protein precipitation of MWL001 and DHA (as an MWL001 metabolite) using methanol (100 μL plasma sample mixed with […] of methanol. The separation was carried out under reverse-phase conditions employing a Phenomenex Synergi, column (MAX-RP, 50×2 mm, 2.5 μm, 100A (in gradient mode. The mobile phase A was methanol/water/formic acid 20/80/0.2 and the mobile phase B was methanol/water/formic acid 80/20/0.2. The flow rate was maintained at 0.3 mL/min, and the column was maintained at 40° C. HPLC-MS/MS analysis was performed with a Shimadzu LC-20 HPLC system coupled with a Sciex Qtrap 3200 Turbo Ion Spray detector in positive ionization mode. The tested samples were quantified against a calibration curve in the range of 5-50 ng/mL.

The next data set concerns rat QT and QTc intervals. The data set is described as follows: Cardio toxicity: QT prolongation, ECG in anesthetized rats. In kind it is in vivo. The source says: The QT interval (time from beginning of the QRS complex and to the end of the T wave) of the ECG is a measure of the duration of ventricular depolarization and repolarization. When ventricular repolarization is delayed and the QT interval is prolonged, there is an increased risk of ventricular tachyarrhythmia, including torsade de points (potentially fatal polymorphic ventricular tachycardia). As the QT interval has an inverse relationship to heart rate, the measured QT intervals are generally corrected for heart rate in order to determine whether they are prolonged relative to the baseline.
The initial evaluation of cardiac safety by ECG measurements focuses on QTc duration of MWL001 50 mg/ml concentration.
Male Sprague-Dawley rats (280-300 g of weight) were used for electrocardiographic measurements at basal conditions as well as medicated with QND and MWL. […] Electrocardiograms were recorded using disk electrodes fitted subcutaneously near the right and left axial regions and at the xiphoid cartilage and secured by surgical clips for standard Lead II recording. […] All of the data was recorded (AdInstruments PowerLab 16/30, Australia) for off line analysis.
Heart rate (RR interval), QT interval and QTc (corrected QT interval) were calculated by ECG analysis module in the LabChart 7.2.1 software and manually screened by trained technicians. […]

For data set [3], the system named is carrageenan-induced edema. The data set is described as follows: Carrageenan-induced paw edema in rats. The conditions noted are these: carrageenan 1 mg/paw, versus Ibuprofen, FIG. 4. It counts as in vivo, Sprague dawley rats. The method, then:
Exemplary conjugates were subjected to in vivo study of paw edema measurements in rats. Sprague dawley rats (150-200 grams) were used. Edema was induced by a single sub-plantar injection of carrageenan (1 mg/paw) into the left hind paw of the rat under light ether anesthesia. The total volume injected was 0.1 ml. The paw volume was measured immediately before the injection and at hourly intervals thereafter using a hydroplethysmometer (model 7150, Ugo Basile, Italy). The results were expressed either as the increase in paw volume (ml) calculated by subtracting the basal volume or by calculating the area under the time-course curve (AUC; ml h) for each group.
The anti-inflammatory activity of the conjugates was tested versus Ibuprofen, as a reference, on carrageenan-induced edema at different time intervals.
In general terms: Carrageenan injected into the paw causes an acute inflammation.

[4] abbreviates: male, Sprague-Dawley, rat, 10 mg/kg oral gavage, plasma.

What is called AUC is concentration integrated over time. As usually defined, the Cmax is the highest concentration seen after dosing. Broadly, the Tmax is the time at which the peak concentration occurs.

`CC/C=C\C/C=C\C/C=C\C/C=C\C/C=C\C/C=C\CCC(=O)NCCS(=O)(=O)O` [MWL002, N-docosa-4,7,10,13,16,19-hexaenoyl-taurine]: in data set [1] (50 mg/kg IP, 3 times a week, 12 administrations), the “day from which arthritis score (AS) increases” value came out at 57 days. Further, the CIA development entry in data set [1] (50 mg/kg IP, overall conclusion) was “inhibits CIA development robustly”. Further, in data set [1] (50 mg/kg IP, from day 37, in comparison to the other 3 groups), the body weight result is “increase the body weight in a major percent”. Besides, the “arthritis thickness index (ATI) increase” value in data set [1] (from day 0 to day 70, 50 mg/kg IP, groups 1M DHA-Tau, 2M DHA, 4M Ibuprofen) was 150%. Besides, in data set [1] (from day 43 until end of study, FIG. 8B), the ATI course entry is given as “almost no changes”.
On to `CCC=CCC=CCC=CCC=CCC=CCC=CCCC(=O)N1CC(O)CC1C(=O)O` (stereo not shown) [MWL001], for which, in data set [2] (10 mg/kg oral gavage, plasma), the “Cl (Clearence)” value is 25.212 ± 3.152 mL/min/kg and the “V (Volume of distribution)” value is given as 11283.0 ± 3583.1. For the same compound, the “oral absorption / bioavailability” value in data set [2] (10 mg/kg oral, FIG. 9) was “high bioavailability”. In data set [2] (setting [4]), the AUC worked out at 6690 ± 838 ng·h/mL, the Cmax was found to be 1040 ± 77.5 ng/mL and the Tmax stood at 2.3 ± 0.5 h. Further, in data set [2] (male, Sprague-Dawley, rat, 10 mg/kg oral gavage, plasma, read-out: T½ (converted)), the half-life is 4.9 ± 0.6 h. Also, the “metabolism (major metabolite)” value in data set [2] (oral, plasma, FIG. 9) was “undergoes decomposition to DHA”. In addition, the cardiotoxic effect entry in the data set on rat QT and QTc intervals (high doses, short term of 2-3 hr, compared to Quinidine) is “no cardiotoxic effect”. In addition, the “prolongation of the QTc interval” value in the data set on rat QT and QTc intervals (i.v. 50-166 mg/kg, two hr period after injection) is reported as “did not result in prolongation”. Moreover, the “anti-inflammatory effect (paw swelling volume)” value in data set [3] was “superior to Ibuprofen”.
